Assay type in all cases: cell-based, human
The subject of experiment [1] is hiPSCs. In words: WNT signaling modulation from day 6 of differentiation, CD34+CD43-CD93- HE analyzed at Day 10. As for the experimental part:
To optimize the efficient generation of definitive HE from hiPSCs after 10 days of directed differentiation, the effect of modulation of the WNT signaling pathway was examined. At day 6 of differentiation, cell cultures were differentiated in the presence of the GSK3 inhibitor CHIR99021, a Wnt agonist, or IWP2, a WNT inhibitor (FIG. 29A). The generation of CD34+CD43−CD93− HE was analyzed at Day 10.

Experiment [2] relates to Day 10 CD34+CD43- cells. Nature of the experiment: iNK differentiation of WNT modulated HE. As for the experimental part: Specific to NK cells, upon sorting, the HE cells were cultured on low attachment tissue culture plates in iNK-A2 serum-free differentiation media containing SCF, TPO, Flt3L, IL3, IL15, and IL7 (FIG. 3). After 5 days, the cells were transferred to adherent cultures containing DLL4-expressing stromal cells in iNK-B2 differentiation media containing SCF, IL3, IL15, Flt3L and IL7 to complete NK cell differentiation. After approximately 10-15 days of culturing (post HE isolation) the cell culture was assessed for the generation of NK cell progenitors followed by mature NK subsets following an additional 10-15 days of culturing. CD56 and CD161 (NKR-P1A) are the first cell surface markers to be expressed during early NK cell development followed by the expression of CD16, KIR, CD8 and NKG2D (CD314) on later mature NK cell subsets. FIG. 11 depicts the in vitro differentiation capability of the Day 10 HE population to give rise to early NK cell progenitors and mature NK cell subsets by analysis of a CD45+ population generated in the co-cultures.
(§1) To determine the potency of the WNT modulated HE, the pan-hematopoietic and lymphoid potential of the untreated, IWP2- and CHIR99021-treated HE was each assessed. Day 10 CD34+CD43− cells were isolated by FACS and plated in MPP differentiation and iNK differentiation cultures as provided herein.

Experiment [3] relates to hiPSCs. Nature of the experiment: hiPSC monolayer hematopoietic differentiation (iCD34 platform), CD34+ HE population at D10 by flow cytometry. The procedure: The iCD34 platform is an optimized system for hematopoietic lineage cells differentiation. To initiate differentiation towards the hematopoietic lineage, hiPSCs were seeded as a monolayer on Day (D) 0 in the maintenance medium and allowed to adhere and expand for about 24 hours. At this point, the maintenance medium was removed and replaced with base medium without maintenance factors at D1. Hematopoietic differentiation was initiated at around D2 by switching the culture medium to iCD34−A (see FIG. 1). […] The monolayers were maintained until around D5-D6 at which point they were dissociated into single cells and seeded as a low density monolayer in iCD34−C medium until differentiation around D10. Low oxygen tension (2-10% O2) was maintained from the onset of hematopoietic differentiation around D2 up until around D10 of differentiation.
During the culture process, the directed differentiation towards the hematopoietic lineage was monitored by the dissociation of the monolayers into single cells and analysis for the surface marker expression of CD34, and optionally, CD43, CD45, CXCR4, CD73 and/or CD93 (FIG. 4A). At around D8 of differentiation, the appearance of a cell population representing HE was observed by the cell surface expression signature CD34+. CD43−CXCR4−CD73− was also observed in the CD34+ cells. The CD34+ population was maintained until around D10 (FIG. 4A). At D10, which time point can be shortened to about D9 or extended until about D12, the cells were dissociated into single cells and the CD34+ HE population was sorted by FACS using a BD FACS Aria for further analysis and functional assessment.
To optimize the efficient generation of HE from hiPSCs after around 10 days of differentiation several parameters were examined. The optimal plating density of the monolayers at D0 of differentiation was assessed by plating increasing numbers of hiPSCs from 7.5×10^4/well to 1.5×10^5/well on Matrigel™-coated 6 well culture dishes and then analyzing the generation of the CD34+ HE population at about D10. […] Despite this decrease, the highest conversion rate of hiPSCs to HE after 10 days of monolayer differentiation was at the highest plating density tested at 1.5×10^5/well (FIG. 4C).
The effect of the concentration of BMP4 modulation during the initial stages of hematopoietic differentiation on the generation of HE was assessed by treating the cultures with increasing concentrations of BMP4 ranging from 0 ng/ml to 30 ng/ml from about D2 to about D6 of differentiation. The generation of HE at D10 was assessed by the detection of the CD34+ HE population.
The Wnt pathway activator CHIR99021 is responsible for the induction of the definitive hematopoietic program from hiPSCs. The effect of the modulation of CHIR during the induction phase of the hematopoietic differentiation protocol was assessed by treating the cultures with increasing concentrations of CHIR from about D3.75 to about D6.
On the technique in general: A flow cytometer gives signals particle by particle.

The subject of experiment [4] is Day 10 CD34+CD43- cells. Nature of the experiment: MPP differentiation of WNT modulated HE. The procedure:
Approximately 30,000 CD34+ HE cells were plated as a monolayer in iMPP-A media and further cultured for 6-8 days. FIG. 6A illustrates the phenotypic alterations in the monolayer cultures with the emergence of round hematopoietic cells and flow cytometric staining identifies the presence of CD45+ over the 6-8 day culture period.
as §1

Experiment [5] has as its system umbilical cord blood CD34+ cells. In words: Stromal-free NK differentiation on plate-bound DLL4 protein, cord blood cells. To be noted: versus stromal-based and stromal-free control cultures. The procedure: Specific to NK cells, enriched umbilical cord blood CD34+ cells were plated in iNK-A2 serum-free differentiation media containing SCF, Flt3L, TPO, IL3, IL15 and IL7 in culture plates containing DLL4 protein or control protein. After 5 days the iNK-B2 medium was maintained to complete NK cell differentiation. After approximately 10-15 days of culture, the culture was assessed for the generation of NK cell progenitors and the absence of myeloid cells. CD56, CD7 and CD161 are the first cell surface markers to be expressed during NK cell development. CD11b and CD14 are cell surface markers expressed on myeloid cell subsets. FIG. 18 depicts stromal-free differentiation of umbilical cord blood CD34+ cells towards NK cells. […] Early NK lineage markers identify the presence of ipro-NK cells as defined by CD56, CD7 and CD161 and the absence of myeloid markers CD11b and CD14.

Experiment [6] relates to Day 10 CD34+ iHE sorted cells. In words: Stromal-free NK differentiation on plate-bound DLL4 protein, hiPSC-derived cells. The text has this:
Then the hiPSC-derived CD34+ cells were differentiated towards the NK cell lineage for 20 days and then placed in suspension culture for further maturation. […] After 5 days iNK-B2 media was maintained to complete NK cell differentiation. Markers for identifying the presence of mature NK cells include CD56, CD122, NKp30, CD94, CD16, NKG2D and KIR.

Setting [7] is: CHIR from about D3.75 to about D6.

On to `Cc1ccc2nc(NC(=O)CSc3nc4c(c(=O)n3-c3ccccc3)SCC4)sc2c1` [IWP2], for which, in the experiment with hiPSCs [1] (treated from day 6), the “HE cell numbers at Day 10” value was “overall decrease in HE cell numbers” and the “percentage of phenotypic HE at Day 10” value is “did not affect the percentage of phenotypic HE”.
Take `Cc1c[nH]c(-c2cnc(NCCNc3ccc(C#N)cn3)nc2-c2ccc(Cl)cc2Cl)n1` [CHIR99021]: the “number and percentage of phenotypic CD34+CD43-CD93- HE (FIG. 29B legend)” value with hiPSCs [1] is “increased the number and the percentage”. Moreover, in the experiment with hiPSCs [1] (treated from day 6), the “HE cellularity (total HE cell number, HE proliferation)” value was “improved HE cellularity” and the “percentage of CD34+CD43- cells at Day 10” value is recorded as “slight decrease”. Besides, the “increase in number and percentage of phenotypic CD34+CD43-CD93- HE” value in the experiment on hiPSCs [1] (treated from day 6, Day 10) was 2-3 fold. Moreover, the “production of NK progenitor cells from the modulated HE (FIG. 30B legend)” value with Day 10 CD34+CD43- cells [2] is given as “increased the production of NK progenitor cells”. For the same molecule, the “increased presence of CD56+CD7+ NK progenitor cells (lymphoid capacity)” value in the experiment with Day 10 CD34+CD43- cells [2] (after 20 days of iNK differentiation) was 5-6 fold. Further, in the experiment on hiPSCs [3] (setting [7]), the “effect of increasing concentration on percentage of the HE subpopulation” value is “decreases the percentage of the HE subpopulation”, the “effect of increasing concentration on total percentage of CD34+ cells” value was “increases the total percentage of CD34+ cells” and the “optimal concentration of CHIR99021 for HE subpopulation” value is given as “approximately 1 uM”. Besides, the “production of CD45+ cells from the modulated HE (FIG. 30A legend)” value with Day 10 CD34+CD43- cells [4] is reported as “increased the production of CD45+ cells”. Moreover, the “increased presence of CD45+ cells (hematopoietic potency)” value in the experiment on Day 10 CD34+CD43- cells [4] (after 7 days of MPP differentiation) was 5-6 fold.
For “DLL4: plate-bound DLL4 protein, Notch activator”, the “differentiation of CD56+CD7+CD161+ NK cell progenitors” value in experiment [5] was “supports a more rapid and efficient differentiation”. For the same molecule, in experiment [6], the “differentiation of NK cell progenitors versus myeloid cells” value is “supports the differentiation of CD56+CD7+CD161+ NK cell progenitors but not CD11b+ myeloid cells”.

B1: BMP4: bone morphogenetic protein, BMP pathway activator (protein, UniProt P12644 293-408, looked up)
Bone morphogenetic protein 4: SPKHHSQRARKKNKNCRRHSLYVDFSDVGWNDWIVAPPGYQAFYCHGDCPFPLADHLNSTNHAIVQTLVNSVNSSIPKACCVPTELSAISMLYLDEYDKVVLKNYQEMVVEGCGCR
For B1, in the experiment with hiPSCs [3] (BMP4 0 ng/ml to 30 ng/ml from about D2 to about D6), the “optimal concentration of BMP4 for HE population at D10” value is reported as “about 3 ng/mL”. In the experiment with hiPSCs [3] (BMP4 from D2 to D6, below a threshold concentration), the “effect of increasing BMP4 concentration on HE population at D10” value is given as “increases the HE population at D10”.

The record behind these values is US10858628B2, “Methods and compositions for inducing hematopoietic cell differentiation” (Fate Therapeutics, Inc., priority 2015, dated 2020).
